Measurements reported in PubChem BioAssay AID608 (Sanford-Burnham Center for Chemical Genomics, 2007).
Activity calls are given as the source filed them. No rule for the calls is given here.

The molecules below were run against Peptidyl-prolyl cis-trans isomerase FKBP1A (Homo sapiens) (UniProt P62942) (assay: small-molecule binding to FKBP12 – biophysical, NMR detection (AID 608)). Details: purified FKBP12.
Chain of Peptidyl-prolyl cis-trans isomerase FKBP1A (Homo sapiens) (P62942 whole entry, looked up): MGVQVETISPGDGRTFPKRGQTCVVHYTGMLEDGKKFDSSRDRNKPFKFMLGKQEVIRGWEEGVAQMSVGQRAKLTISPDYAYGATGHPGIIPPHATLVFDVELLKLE
`CCN1CCN(CCCNc2ncnc3nc[nH]c23)CC1` was tested, and the Kd was > 4 mM (inactive). For `COc1ccc(-c2cc(=O)c3c(OC)c(OC)c(OC)c(OC)c3o2)cc1OC`, the Kd was > 4 mM (inactive). With `CN1CCOc2cc(C(=O)O)ccc21` the Kd was > 4 mM (inactive). `Cc1cccc(-n2c(N)cc(=O)[nH]c2=S)c1C` was tested, and the Kd was > 4 mM (inactive). With `OCCNc1nc2ccc(Cl)cc2[nH]1` the Kd was > 4 mM (inactive). `NC(=O)C1(S(=O)(=O)c2ccccc2)CC1` was tested, and the Kd was > 4 mM (inactive). `COc1c(OC)c2occc2c2oc(=O)ccc12` was tested, and the Kd was > 4 mM (inactive). `COc1ccc(-c2coc3c(OC)c(OC)cc(O)c3c2=O)cc1` was tested, and the Kd was > 4 mM (inactive). For `CC(=O)Nc1cccc(NC(=O)c2ccco2)c1`, the Kd was > 4 mM (inactive). For `OCc1ccc2c(c1)CCO2`, the Kd was > 4 mM (inactive). In the case of `O=C(O)CCCNC(=O)c1ccccc1C(=O)O`, the Kd is reported as > 4 mM (inactive). For `COc1c(C(=O)N2CCCC2)ccc2ccccc12`, the Kd was > 4 mM (inactive). For `c1cnc(N2CCNCC2)nc1`, the Kd was > 4 mM (inactive). `Nc1nc(=S)n2c(n1)oc1ccccc12` was tested, and the Kd was > 4 mM (inactive). `O=c1c2ccccc2ncn1C1CCCCC1` was tested, and the Kd was > 4 mM (inactive). `CC(=O)Oc1ccc2c(c1C(C)C)CCC1C(C)(C)CCC[C@]21C` (stereo not given in full) was tested, and the Kd was > 4 mM (inactive). For `CC(=O)Nc1nnc(-c2ccccc2)o1`, the Kd was > 4 mM (inactive). With `CCOC(=O)c1cc(C)n(-n2cnnc2)c1C` the Kd was > 4 mM (inactive). `COc1c(O)cc2oc3cc(O)c(CC=C(C)C)c(O)c3c(=O)c2c1CC=C(C)C` was tested, and the Kd was > 4 mM (inactive). With `O=C(c1nc2ccccc2s1)N1CCSCC1` the Kd was > 4 mM (inactive). In the case of `CC(=O)O[C@@H]1CC[C@@]2(C)C(CC[C@]3(C)C2CC=C2C4CC(C)(C)CC[C@]4(C(=O)O)CC[C@]23C)C1(C)C` (stereo not given in full), the Kd is reported as > 4 mM (inactive). For `COc1ccc(NC(=O)/C=N/O)cc1`, the Kd was > 4 mM (inactive). With `CN1C2CC(OC(=O)[C@H](CO)c3ccccc3)C[C@H]1[C@H]1OC21` (stereo not given in full) the Kd was > 4 mM (inactive). For `CN(C)c1ccc(N2C(=O)CCC2=O)cc1`, the Kd was > 4 mM (inactive). In the case of `COc1ccc(-c2cc(=O)c3c(OC(C)=O)cc(OC(C)=O)cc3o2)cc1`, the Kd is reported as > 4 mM (inactive). In the case of `CC(C)=CCCC1(C)C=Cc2c(O)c3c(c(CC=C(C)C)c2O1)OC12C(=CC4CC1C(C)(C)OC2(C/C=C(/C)C(=O)O)C4O)C3=O` (stereo not given), the Kd is reported as > 4 mM (inactive). With `O=C(c1ccc(Cl)c(F)c1F)N1CCCC1` the Kd was > 4 mM (inactive). `CC(C)(C)NC(=O)CN1C(=O)c2ccccc2S1(=O)=O` was tested, and the Kd was > 4 mM (inactive). In the case of `CC1(C)C=Cc2cc3ccc(=O)oc3cc2O1`, the Kd is reported as > 4 mM (inactive). For `O=c1[nH]c(O)c(C=NCc2cccs2)c(=O)[nH]1`, the Kd was > 4 mM (inactive). In the case of `CC(=O)NCc1nc2ccccc2[nH]1`, the Kd is reported as > 4 mM (inactive). `Cc1cc(C)n2nc(C(=O)Nc3cccnc3)nc2n1` was tested, and the Kd was > 4 mM (inactive). With `COc1cc(N)ccc1NC(=O)c1cccs1` the Kd was > 4 mM (inactive). `Cc1nn2c(-c3ccco3)nnc2c2ccccc12` was tested, and the Kd was > 4 mM (inactive). In the case of `NC(=O)c1cccc2c(=O)oc3ccccc3c12`, the Kd is reported as > 4 mM (inactive). With `S=C(c1cccnc1)N1CCOCC1` the Kd was > 4 mM (inactive). In the case of `OC1CCN(Cc2ccc[nH]2)CC1`, the Kd is reported as > 4 mM (inactive). For `CC1(C)CN=C(Nc2nc3ccccc3s2)S1`, the Kd was > 4 mM (inactive). For `COc1ccccc1-c1c(C)nn2c(C)c(C(C)=O)cnc12`, the Kd was > 4 mM (inactive). In the case of `CS(C)=C1C(=O)NC(=O)N(Cc2ccc(F)cc2)C1=O`, the Kd is reported as > 4 mM (inactive). `Cc1cc(C)nc(Nc2n[nH]c(Cc3ccccc3)n2)n1` was tested, and the Kd was > 4 mM (inactive). `Cc1ccc(NS(=O)(=O)N2CCOCC2)cc1` was tested, and the Kd was “inactive”. `O=S(=O)(NCc1ccco1)N1CCOCC1` was tested, and the Kd was > 4 mM (inactive). For `NC(=O)C1CCN(c2ncnc(N)c2[N+](=O)[O-])CC1`, the Kd was > 4 mM (inactive). `O=C(O)CN1C(=O)c2ccc(C(=O)O)cc2C1=O` was tested, and the Kd was > 4 mM (inactive). In the case of `Cc1nc2ccc(C(=O)O)cc2nc1C`, the Kd is reported as > 4 mM (inactive). For `CC(=O)O[C@H]1CC[C@@]2(C)C(=CC(=O)C3C4CCC(C(C)CCCC(C)C)[C@@]4(C)CCC32)C1` (stereo not given in full), the Kd was > 4 mM (inactive). With `CC(=O)O[C@@H]1c2c(ccc3ccc(=O)oc23)OC(C)(C)[C@@H]1OC(=O)CC(C)C` the Kd was > 4 mM (inactive). In the case of `Cc1cc(=O)n(CC(C)C)c(O)c1C#N`, the Kd is reported as > 4 mM (inactive). In the case of `Cc1cc(C(=O)N2CCN(c3ncccn3)CC2)cs1`, the Kd is reported as > 4 mM (inactive). With `CC(C)(O)[C@@H]1[C@H]2OC(=O)[C@@H]1[C@]1(O)C[C@H]3O[C@]34C(=O)O[C@H]2[C@]14C` the Kd was > 4 mM (inactive). In the case of `COc1cc2c(cc1OC)[C@@H]1C(=O)c3ccc(O)c(CC=C(C)C)c3O[C@@H]1CO2`, the Kd is reported as > 4 mM (inactive). In the case of `Nc1cccc(S(N)(=O)=O)c1`, the Kd is reported as > 4 mM (inactive). For `O=C(Nc1cccc2cccnc12)c1cccnc1`, the Kd was > 4 mM (inactive). With `O=C(c1sc2cccc(Cl)c2c1Cl)N1CCOCC1` the Kd was “inactive”. With `Cc1ccc(N2C(=O)CC(Sc3ncn[nH]3)C2=O)cc1` (stereo not given) the Kd was > 4 mM (inactive). For `Nc1nnc(SCc2cccnc2)s1`, the Kd was > 4 mM (inactive). In the case of `COc1cc(N)ncn1`, the Kd is reported as > 4 mM (inactive). For `CCCOn1nnnc1-c1ccccc1`, the Kd was > 4 mM (inactive). With `CC1(C)Cc2nc3n[nH]c(N)c3cc2CO1` the Kd was > 4 mM (inactive).
